Laboratory results reported in US9783537B2, “3-(4-ethylnylphenyl) pyridopyrimidinone compounds and process for preparation thereof useful as potential anticancer agents” (Council of Scientific & Industrial Research, priority 2013, dated 2017).
Like-named read-outs stand apart in the source and are kept apart here.

How the values were obtained:
[1] = tested on: SK-OV-3; assay: SRB 48 h growth assay, Ovarian SK-OV-3; type: cell-based, human; conditions: SK-OV-3, Ovarian
[2] = tested on: RPMI-8226; assay: SRB 48 h growth assay, Leukemia RPMI-8226; type: cell-based, human; conditions: RPMI-8226, Leukemia
[3] = tested on: six CNS cancer cell line (SF-268, SF-295, SF-539, SNB-19, SNB-75 and U251); assay: in vitro anticancer activity, CNS panel; type: cell-based; conditions: Homo sapiens; six CNS cancer cell lines, exposure at least 48 h; read-out: GI50, range over panel
[4] = tested on: SNB-75; assay: SRB 48 h growth assay, CNS SNB-75; type: cell-based, human; conditions: SNB-75, CNS
[5] = tested on: MDA-MB-231/ATCC; assay: SRB 48 h growth assay, Breast MDA-MB-231/ATCC; type: cell-based, human
[6] = tested on: OVCAR-3; assay: SRB 48 h growth assay, Ovarian OVCAR-3; type: cell-based, human; conditions: OVCAR-3, Ovarian
[7] = tested on: OVCAR-8; assay: SRB 48 h growth assay, Ovarian OVCAR-8; type: cell-based, human; conditions: OVCAR-8, Ovarian
[8] = tested on: UACC-62; assay: SRB 48 h growth assay, Melanoma UACC-62; type: cell-based, human; conditions: UACC-62, Melanoma
[9] = tested on: A549/ATCC; assay: SRB 48 h growth assay, Non-small Cell Lung A549/ATCC; type: cell-based, human
[10] = tested on: UACC-257; assay: SRB 48 h growth assay, Melanoma UACC-257; type: cell-based, human; conditions: UACC-257, Melanoma
[11] = in vitro anticancer activity, melanoma panel; type: cell-based; conditions: Homo sapiens; nine melanoma cell lines, exposure at least 48 h; read-out: GI50, range over panel
[12] = tested on: seven ovarian cancer cell lines (IGROV1, OVCAR-3, OVCAR-4, OVCAR-5, OVCAR-8, NCI/ADR-RES and SK-OV-3); assay: in vitro anticancer activity, ovarian panel; type: cell-based; conditions: Homo sapiens, exposure at least 48 h, read-out: GI50, range over panel
[13] = tested on: seven colon cancer cell line (COLO 205, HCC-2998, HCT-116, HCT-15, HT29, KM12 and SW-620); assay: in vitro anticancer activity, colon panel; type: cell-based; conditions: Homo sapiens; seven colon cancer cell lines, exposure at least 48 h; read-out: GI50, range over panel
[14] = tested on: PC-3; assay: SRB 48 h growth assay, Prostate PC-3; type: cell-based, human; conditions: PC-3, Prostate
[15] = tested on: HCT-116; assay: SRB 48 h growth assay, Colon HCT-116; type: cell-based, human; conditions: HCT-116, Colon
[16] = tested on: NCI-H522; assay: SRB 48 h growth assay, Non-small Cell Lung NCI-H522; type: cell-based, human
[17] = tested on: 786-0; assay: SRB 48 h growth assay, Renal 786-0; type: cell-based, human; conditions: 786-0, Renal
[18] = tested on: NCI-H226; assay: SRB 48 h growth assay, Non-small Cell Lung NCI-H226; type: cell-based, human
[19] = tested on: NCI/ADR-RES; assay: SRB 48 h growth assay, Ovarian NCI/ADR-RES; type: cell-based, human
[20] = tested on: SK-MEL-5; assay: SRB 48 h growth assay, Melanoma SK-MEL-5; type: cell-based, human; conditions: SK-MEL-5, Melanoma
[21] = tested on: K-562; assay: SRB 48 h growth assay, Leukemia K-562; type: cell-based, human
[22] = tested on: HOP-92; assay: SRB 48 h growth assay, Non-small Cell Lung HOP-92; type: cell-based, human; conditions: HOP-92, Non-small Cell Lung
[23] = tested on: M14; assay: SRB 48 h growth assay, Melanoma M14; type: cell-based, human
[24] = tested on: TK-10; assay: SRB 48 h growth assay, Renal TK-10; type: cell-based, human; conditions: TK-10, Renal
[25] = tested on: OVCAR-4; assay: SRB 48 h growth assay, Ovarian OVCAR-4; type: cell-based, human; conditions: OVCAR-4, Ovarian
[26] = tested on: CCRF-CEM; assay: SRB 48 h growth assay, Leukemia CCRF-CEM; type: cell-based, human
[27] = Homo sapiens, read-out: Growth Inhibition GI50
[28] = Homo sapiens, read-out: Log10 GI50 (converted)
[29] = Homo sapiens, read-out: Log10 LC50 (converted)

Compound: C#Cc1ccc(-n2c(/C=C/c3ccc(O)cc3)nc3ncccc3c2=O)cc1 [4b, (E)-3-(4-Ethynylphenyl)-2-(4-hydroxystyryl)pyrido[2,3-d]pyrimidin-4(3H)-one]
- GI50 [1, 27]: 3.38 µM
- GI50 [1, 28]: 3.39 µM
- CC50 [1, 29]: > 100 µM
- Log10 TGI50 [1]: −4.54
- GI50 [2, 27]: 3.41 µM
- GI50 [2, 28]: 3.39 µM
- CC50 [2, 29]: > 100 µM
- Log10 TGI50 [2]: >−4.00
- GI50 [3]: 3.88 to 16.2 µM
- GI50 [4, 27]: 0.94 µM
- GI50 [4, 28]: 0.955 µM
- CC50 [4, 29]: > 100 µM
- Log10 TGI50 [4]: −4.49
- Log10 TGI50 [5]: >−4.00
- GI50 [5, 27]: 11.4 µM
- GI50 [5, 28]: 11.5 µM
- CC50 [5, 29]: > 100 µM
- GI50 [6, 27]: 2.41 µM
- GI50 [6, 28]: 2.4 µM
- CC50 [6, 29]: > 72.4 µM
- Log10 TGI50 [6]: −5.24
- GI50 [7, 27]: 4.39 µM
- GI50 [7, 28]: 4.37 µM
- CC50 [7, 29]: > 100 µM
- Log10 TGI50 [7]: −4.33
- GI50 [8, 27]: 4.01 µM
- GI50 [8, 28]: 3.98 µM
- CC50 [8, 29]: > 100 µM
- Log10 TGI50 [8]: >−4.00
- Log10 TGI50 [9]: >−4.00
- GI50 [9, 27]: 4.74 µM
- GI50 [9, 28]: 4.79 µM
- CC50 [9, 29]: > 100 µM
- GI50 [10, 27]: 6.3 µM
- GI50 [10, 28]: 6.31 µM
- CC50 [10, 29]: > 100 µM
- Log10 TGI50 [10]: >−4.00
- GI50 [11]: 1.78 to 34.6 µM
- GI50 [12]: 2.33 to 9.67 µM
- GI50 [13]: 3.19 to 27.5 µM
- GI50 [14, 27]: 3.87 µM
- GI50 [14, 28]: 3.89 µM
- CC50 [14, 29]: > 100 µM
- Log10 TGI50 [14]: −4.32
- Log10 TGI50 [15]: >−4.00
- GI50 [15, 27]: 5.07 µM
- GI50 [15, 28]: 5.01 µM
- CC50 [15, 29]: > 100 µM
- Log10 TGI50 [16]: −5.22
- GI50 [16, 27]: 2 µM
- GI50 [16, 28]: 2 µM
- CC50 [16, 29]: > 100 µM
- Log10 TGI50 [17]: >−4.30
- GI50 [17, 27]: 4.88 µM
- GI50 [17, 28]: 4.9 µM
- CC50 [17, 29]: > 100 µM
- Log10 TGI50 [18]: −4.88
- GI50 [18, 27]: 2.58 µM
- GI50 [18, 28]: 2.57 µM
- LC50 [18, 29]: > 100 µM
- Log10 TGI50 [19]: >−4.00
- GI50 [19, 27]: 5.28 µM
- GI50 [19, 28]: 5.25 µM
- CC50 [19, 29]: > 100 µM
- GI50 [20, 27]: 2.24 µM
- GI50 [20, 28]: 2.24 µM
- CC50 [20, 29]: > 100 µM
- Log10 TGI50 [20]: −5.13
- GI50 ([21]; Homo sapiens, K562, K-562, Leukemia, read-out: Growth Inhibition GI50): 4.33 µM
- GI50 ([21]; Homo sapiens, K562, K-562, Leukemia, read-out: Log10 GI50 (converted)): 4.37 µM
- CC50 ([21]; Homo sapiens, K562, K-562, Leukemia, read-out: Log10 LC50 (converted)): > 100 µM
- Log10 TGI50 ([21]; K-562, Leukemia): >−4.00
- Log10 TGI50 [22]: −4.77
- GI50 [22, 27]: 1.8 µM
- GI50 [22, 28]: 1.82 µM
- CC50 [22, 29]: > 100 µM
- Log10 TGI50 [23]: −5.09
- GI50 [23, 27]: 2.7 µM
- GI50 [23, 28]: 2.69 µM
- CC50 [23, 29]: > 100 µM
- GI50 [24, 27]: 8.78 µM
- GI50 [24, 28]: 8.71 µM
- CC50 [24, 29]: > 100 µM
- Log10 TGI50 [24]: −4.16
- GI50 [25, 27]: 22.8 µM
- GI50 [25, 28]: 1.58 µM
- CC50 [25, 29]: > 100 µM
- Log10 TGI50 [25]: >−4.00
- Log10 TGI50 [26]: >−4.00
- CC50 ([26]; Homo sapiens, CCKF-CEM, read-out: Log10 LC50 (converted)): > 100 µM
- GI50 [26, 27]: 3.3 µM
- GI50 [26, 28]: 3.31 µM
